# Reference: ChEMBL document CHEMBL1201862, “PubChem BioAssay data set” (2004)
# The source made the active and inactive calls.
# Assays:
# [1] = target: T1, Short transient receptor potential channel 4 (Mus musculus, UniProt Q9QUQ5); assay: mouse TRPC4 channel activators, dose response, cell-based, HEK293 TRPC4/mu-opioid, Fluo-4 calcium (AID 434937); type: functional
# T1 sequence (Q9QUQ5 whole entry): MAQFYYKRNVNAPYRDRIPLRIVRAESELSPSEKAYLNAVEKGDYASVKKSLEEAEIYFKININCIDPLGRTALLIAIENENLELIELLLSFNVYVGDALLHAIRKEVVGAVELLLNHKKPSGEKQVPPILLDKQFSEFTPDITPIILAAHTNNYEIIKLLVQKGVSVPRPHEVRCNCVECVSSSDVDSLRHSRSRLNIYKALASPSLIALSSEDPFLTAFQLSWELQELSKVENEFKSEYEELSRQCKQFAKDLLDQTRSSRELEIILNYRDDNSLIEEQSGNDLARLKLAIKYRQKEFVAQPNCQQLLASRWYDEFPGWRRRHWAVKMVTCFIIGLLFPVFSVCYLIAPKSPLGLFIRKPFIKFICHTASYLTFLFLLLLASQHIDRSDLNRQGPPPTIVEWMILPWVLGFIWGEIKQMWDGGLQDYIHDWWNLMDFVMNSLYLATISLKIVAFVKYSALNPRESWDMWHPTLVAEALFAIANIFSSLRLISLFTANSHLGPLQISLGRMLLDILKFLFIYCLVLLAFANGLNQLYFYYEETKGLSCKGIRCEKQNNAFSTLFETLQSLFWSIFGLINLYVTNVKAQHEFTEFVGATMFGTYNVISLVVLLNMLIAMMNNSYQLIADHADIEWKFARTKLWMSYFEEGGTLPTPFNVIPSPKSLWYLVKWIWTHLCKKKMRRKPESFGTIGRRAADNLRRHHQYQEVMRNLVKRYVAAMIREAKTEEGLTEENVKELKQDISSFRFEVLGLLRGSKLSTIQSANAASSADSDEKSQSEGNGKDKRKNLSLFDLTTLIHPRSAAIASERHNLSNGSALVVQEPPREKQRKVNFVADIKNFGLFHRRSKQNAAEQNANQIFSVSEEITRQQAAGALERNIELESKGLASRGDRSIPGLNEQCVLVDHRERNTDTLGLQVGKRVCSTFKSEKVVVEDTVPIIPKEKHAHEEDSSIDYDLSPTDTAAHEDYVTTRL
# [2] = cytotoxicity in HEK-293T cells, dose response, cytotoxicity control for TCR NF-kB inhibitor project, luminescence, T-cell screen hits (AID 489026); type: functional, cell-based;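 further: cells exposed to compound about 14 hours before the viability readout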
# [3] = Luminescence Cell-Based Dose Response HTS to Identify Inhibitors of 5'UTR Stem-Loop Driven Prion Protein mRNA Translation in H4 Neuroglioblastoma Cells. [Related pubchem assays: 1827 (Project Summary), 1813 (Primary HTS)]; type: functional
# [4] = target: T2, Heat shock factor protein 1 (Mus musculus, UniProt P38532); assay: inhibition of MG132-induced HSE-luciferase signal, confirmation, cell-based, NIH3T3, luminescence, dose retest (AID 2382); type: functional;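 further: NIH3T3 fibroblasts with HSF1-driven luciferase reporter stressed by proteasome inhibitor MG132; luminescence from HSF1-driven luciferase expression after 8 hours of MG132 stress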
# T2 sequence (P38532 whole entry): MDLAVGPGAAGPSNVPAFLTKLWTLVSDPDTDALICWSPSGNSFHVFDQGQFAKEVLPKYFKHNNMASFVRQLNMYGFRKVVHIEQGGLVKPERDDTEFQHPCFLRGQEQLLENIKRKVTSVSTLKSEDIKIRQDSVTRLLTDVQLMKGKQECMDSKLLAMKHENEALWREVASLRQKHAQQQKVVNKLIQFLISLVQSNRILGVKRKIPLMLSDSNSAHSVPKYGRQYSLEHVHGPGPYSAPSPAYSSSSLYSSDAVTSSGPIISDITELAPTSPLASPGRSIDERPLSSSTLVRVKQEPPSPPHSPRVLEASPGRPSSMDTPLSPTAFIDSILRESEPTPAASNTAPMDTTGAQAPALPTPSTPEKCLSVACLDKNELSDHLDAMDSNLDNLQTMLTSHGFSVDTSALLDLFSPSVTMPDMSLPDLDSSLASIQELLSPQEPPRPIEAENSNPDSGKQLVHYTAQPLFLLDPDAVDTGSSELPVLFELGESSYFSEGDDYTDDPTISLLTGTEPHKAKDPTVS
# [5] = inhibitors of intracellular T. cruzi replication, confirmation, NIH3T3 host cells, beta-gal luminescence (AID 2044); type: functional, cell-based;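 further: intracellular parasites grown in NIH/3T3 mouse fibroblasts as host cells; luminescent beta-galactosidase reporter signal from transgenic T. cruzi replicating inside host cells; inhibitors lower the luminescence signal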
# [6] = growth suppression of PTEN-null colon cells, dose response, cell-based, HCT116 PTEN knockout (AID 1047); type: functional;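 further: HCT116 colon tumor cells with PTEN knocked out; cells exposed to compound for 60 hours before readout; potency for loss of cell viability measured by luminescence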
# [7] = cytotoxicity toward NIH3T3 fibroblasts, dose response, counter-screen, cell-based, ATP luminescence, mouse fibroblasts (AID 2010); type: functional;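 further: cells exposed to compound for about 90 hours before reading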
# [8] = inhibitors of SNCA 5'UTR-driven reporter translation, confirmation, H4 neuroglioma cells, luminescence (AID 1988); type: functional, cell-based
# [9] = growth suppression of beta-catenin-knockout colon cells, dose response, cell-based, HCT116, human colon tumor (AID 1045); type: functional;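 further: HCT116 colon tumor cells with beta catenin knocked out; cells exposed to compound for 60 hours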
# [10] = inhibitors of firefly luciferase expression or activity, dose response, H4 neuroglioma cells, luminescence (AID 1990); type: functional, cell-based
# Genome polyprotein = Genome polyprotein (dengue virus type 2, UniProt P29990); assay: Dengue-2 NS5 methyltransferase inhibitors, primary screen, biochemical, confirmation dose response (AID 588689); type: functional
# [11] = C. albicans growth with fluconazole, confirmation, fluorescence, retest (AID 2467); type: functional, cell-based
# [12] = NIH-3T3 fibroblast cytotoxicity, dose response, cytotoxicity control, cell-based, fluorescence, Alamar Blue, secondary assay (AID 2327); type: functional;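 further: NIH-3T3 mouse fibroblasts cultured with fluconazole at 8 µg/mL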
# BJ [13] = assay: cytotoxicity toward BJ-TERT-LT-ST fibroblasts, dose response, cell-based, RAS-independent, luminescence (AID 1935); type: functional; details: Homo sapiens;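 further: BJ fibroblasts immortalized with TERT plus LT and ST oncogenes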
# BJ [14] = assay: cytotoxicity toward BJ-TERT fibroblasts, dose response, cell-based, RAS-independent, luminescence (AID 1933); type: functional; details: Homo sapiens
# [15] = cytotoxicity toward DRD oncogenic fibroblasts, dose response, cell-based, non-viral oncogenic, luminescence (AID 1934); type: functional; details: Homo sapiens
# BJ [16] = assay: cells; type: functional, cell-based; details: Homo sapiens
# Fatty acid synthase [17] = target: T3, Fatty acid synthase (Homo sapiens, UniProt P49327); assay: FAS thioesterase domain inhibitors, dose response, biochemical, endpoint fluorescence intensity, uHTS hits (AID 624327); type: functional;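 further: fluorescence from hydrolysis of an O-methyl fluorescein acyl ester substrate by the enzyme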
# Fatty acid synthase [18] = target: T3, Fatty acid synthase; assay: FAS thioesterase domain inhibitors, dose response, biochemical, kinetic fluorescence intensity (AID 624326); type: functional;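 further: rate of fluorescence rise from hydrolysis of a fluorogenic O-methyl fluorescein ester substrate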
# [19] = target: Glyceraldehyde-3-phosphate dehydrogenase (Homo sapiens, UniProt P04406)
# Nonstructural protein 1 = Nonstructural protein 1 (Influenza A virus, UniProt Q194T2); type: functional, Influenza A virus (A/California/07/2009(H1N1))
# [20] = off-target signal loss in HeLa-CEM21 co-culture – HeLa F-luc CTL cells, cherry-picked, counter-screen for HIV-1 Env fusion inhibitor project, dose response (AID 652040); type: functional, cell-based;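 further: potency for signal decrease marking cytotoxic or nonspecific inhibition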
# [21] = inhibitors of clade B AD8 Env fusion, dose response, cell-based, cherry-pick (AID 652062); type: functional;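 further: luciferase signal from cell-cell fusion driven by HIV-1 clade B AD8 Env; potency is for inhibitors of fusion seen as a drop in luminescence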
# [22] = ZM109 Env clade C HIV-1 fusion inhibitors, dose response, HeLa effector, CEM target cells, luciferase, cherry-pick (AID 652058); type: functional, cell-based
# [23] = inhibitors of HIV Env-driven cell fusion, dose response, cherry-pick (AID 652057); type: functional, cell-based
# [24] = target: T4, Zinc finger protein mex-5 (Caenorhabditis elegans, UniProt Q9XUB2); assay: MEX-5/TCR-2 RNA interaction inhibitors, dose response, biochemical, C. elegans, fluorescence polarization (AID 1960)
# T4 sequence (Q9XUB2 whole entry): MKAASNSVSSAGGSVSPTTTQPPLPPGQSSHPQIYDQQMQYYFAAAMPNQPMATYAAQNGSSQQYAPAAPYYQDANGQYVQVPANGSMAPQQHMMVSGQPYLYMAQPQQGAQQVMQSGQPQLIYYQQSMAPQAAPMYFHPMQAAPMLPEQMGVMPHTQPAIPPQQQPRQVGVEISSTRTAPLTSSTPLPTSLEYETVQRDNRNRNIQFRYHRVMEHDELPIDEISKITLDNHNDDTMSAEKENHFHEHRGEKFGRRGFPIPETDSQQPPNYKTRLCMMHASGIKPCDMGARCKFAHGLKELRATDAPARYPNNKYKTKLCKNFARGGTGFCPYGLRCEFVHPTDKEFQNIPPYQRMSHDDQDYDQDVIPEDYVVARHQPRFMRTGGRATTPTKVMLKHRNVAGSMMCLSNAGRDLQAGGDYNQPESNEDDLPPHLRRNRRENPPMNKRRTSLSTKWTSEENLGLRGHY
# [25] = target: T5, RNA-binding protein pos-1 (Caenorhabditis elegans, UniProt G5EF15); assay: inhibitors of POS-1/mex-3 RNA binding, dose response, biochemical, fluorescence polarization (AID 1964);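 further: purified POS-1 fused to maltose binding protein made in E. coli; potency of compounds blocking POS-1 binding to fluorescent RNA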
# T5 sequence (G5EF15 whole entry): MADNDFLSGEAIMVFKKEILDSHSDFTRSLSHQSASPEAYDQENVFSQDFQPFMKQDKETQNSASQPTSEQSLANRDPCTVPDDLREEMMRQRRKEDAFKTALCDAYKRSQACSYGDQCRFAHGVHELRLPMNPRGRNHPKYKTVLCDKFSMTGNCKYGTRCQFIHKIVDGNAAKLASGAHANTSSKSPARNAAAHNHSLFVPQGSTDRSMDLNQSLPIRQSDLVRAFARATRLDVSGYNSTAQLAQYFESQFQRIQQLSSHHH
# T3 sequence (P49327 whole entry, the tested form may be a part): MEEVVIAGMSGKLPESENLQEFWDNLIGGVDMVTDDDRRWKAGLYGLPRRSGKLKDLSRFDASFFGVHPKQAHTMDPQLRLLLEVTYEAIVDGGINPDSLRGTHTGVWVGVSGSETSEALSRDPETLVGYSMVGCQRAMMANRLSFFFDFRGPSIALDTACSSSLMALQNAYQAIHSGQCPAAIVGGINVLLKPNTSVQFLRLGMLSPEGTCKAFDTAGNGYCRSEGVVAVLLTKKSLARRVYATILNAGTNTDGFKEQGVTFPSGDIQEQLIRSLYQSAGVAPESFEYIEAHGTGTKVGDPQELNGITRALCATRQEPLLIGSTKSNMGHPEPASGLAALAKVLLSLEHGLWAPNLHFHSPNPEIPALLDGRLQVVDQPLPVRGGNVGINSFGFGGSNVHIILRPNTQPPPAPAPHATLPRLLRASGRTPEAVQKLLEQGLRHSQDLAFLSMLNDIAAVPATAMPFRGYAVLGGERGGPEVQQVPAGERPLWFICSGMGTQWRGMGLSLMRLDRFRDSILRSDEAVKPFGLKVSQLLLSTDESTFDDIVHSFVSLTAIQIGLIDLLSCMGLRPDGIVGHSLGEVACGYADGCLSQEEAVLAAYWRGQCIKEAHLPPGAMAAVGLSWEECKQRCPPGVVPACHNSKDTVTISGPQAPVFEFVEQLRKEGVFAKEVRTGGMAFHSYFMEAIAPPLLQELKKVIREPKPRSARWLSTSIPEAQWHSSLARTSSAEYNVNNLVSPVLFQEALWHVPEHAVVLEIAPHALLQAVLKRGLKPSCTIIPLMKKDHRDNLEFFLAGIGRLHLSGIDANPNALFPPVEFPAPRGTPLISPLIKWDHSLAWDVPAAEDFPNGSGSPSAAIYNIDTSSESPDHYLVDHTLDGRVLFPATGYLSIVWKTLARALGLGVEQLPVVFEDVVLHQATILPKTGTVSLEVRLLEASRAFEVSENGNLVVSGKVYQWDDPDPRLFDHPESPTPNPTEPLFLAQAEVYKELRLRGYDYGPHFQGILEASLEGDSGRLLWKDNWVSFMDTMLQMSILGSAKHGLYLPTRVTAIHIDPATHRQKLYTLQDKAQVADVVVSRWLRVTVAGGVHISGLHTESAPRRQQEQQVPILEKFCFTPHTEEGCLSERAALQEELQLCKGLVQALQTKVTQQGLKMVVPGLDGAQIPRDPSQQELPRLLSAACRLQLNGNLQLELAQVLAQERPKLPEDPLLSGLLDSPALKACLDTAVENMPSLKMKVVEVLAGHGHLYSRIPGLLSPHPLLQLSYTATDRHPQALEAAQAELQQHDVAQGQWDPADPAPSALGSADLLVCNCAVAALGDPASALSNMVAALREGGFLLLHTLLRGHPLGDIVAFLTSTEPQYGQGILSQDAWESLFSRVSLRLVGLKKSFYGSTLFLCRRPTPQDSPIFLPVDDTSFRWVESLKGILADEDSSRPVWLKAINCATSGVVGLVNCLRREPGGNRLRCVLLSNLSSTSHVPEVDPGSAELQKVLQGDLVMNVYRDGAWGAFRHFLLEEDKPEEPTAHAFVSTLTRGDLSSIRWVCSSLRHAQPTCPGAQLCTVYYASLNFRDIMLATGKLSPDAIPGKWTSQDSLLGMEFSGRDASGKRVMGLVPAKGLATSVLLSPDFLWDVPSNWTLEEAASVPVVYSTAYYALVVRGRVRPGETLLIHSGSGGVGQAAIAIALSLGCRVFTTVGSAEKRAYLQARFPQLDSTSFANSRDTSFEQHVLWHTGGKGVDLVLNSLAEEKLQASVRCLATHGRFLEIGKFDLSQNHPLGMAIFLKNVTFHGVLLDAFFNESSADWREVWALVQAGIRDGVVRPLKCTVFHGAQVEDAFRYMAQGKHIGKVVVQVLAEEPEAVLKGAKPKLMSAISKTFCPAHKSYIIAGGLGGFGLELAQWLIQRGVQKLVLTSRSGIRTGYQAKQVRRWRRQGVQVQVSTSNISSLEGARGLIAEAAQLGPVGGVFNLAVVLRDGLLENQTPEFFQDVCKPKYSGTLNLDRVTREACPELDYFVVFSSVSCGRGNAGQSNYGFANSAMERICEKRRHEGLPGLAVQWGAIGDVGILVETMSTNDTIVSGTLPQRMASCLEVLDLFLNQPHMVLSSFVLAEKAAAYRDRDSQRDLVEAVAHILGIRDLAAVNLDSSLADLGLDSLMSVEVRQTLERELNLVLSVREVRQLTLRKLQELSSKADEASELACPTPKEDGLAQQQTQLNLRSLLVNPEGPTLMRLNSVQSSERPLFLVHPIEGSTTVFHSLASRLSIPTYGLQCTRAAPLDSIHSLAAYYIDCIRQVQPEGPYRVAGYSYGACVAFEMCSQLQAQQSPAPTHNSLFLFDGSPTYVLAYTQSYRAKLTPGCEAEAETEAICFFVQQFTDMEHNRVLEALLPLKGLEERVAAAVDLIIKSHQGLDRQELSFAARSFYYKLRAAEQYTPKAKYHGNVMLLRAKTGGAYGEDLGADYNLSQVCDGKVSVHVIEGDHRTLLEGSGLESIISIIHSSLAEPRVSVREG
# Sequence of Genome polyprotein (P29990 2492-3391 limits assumed): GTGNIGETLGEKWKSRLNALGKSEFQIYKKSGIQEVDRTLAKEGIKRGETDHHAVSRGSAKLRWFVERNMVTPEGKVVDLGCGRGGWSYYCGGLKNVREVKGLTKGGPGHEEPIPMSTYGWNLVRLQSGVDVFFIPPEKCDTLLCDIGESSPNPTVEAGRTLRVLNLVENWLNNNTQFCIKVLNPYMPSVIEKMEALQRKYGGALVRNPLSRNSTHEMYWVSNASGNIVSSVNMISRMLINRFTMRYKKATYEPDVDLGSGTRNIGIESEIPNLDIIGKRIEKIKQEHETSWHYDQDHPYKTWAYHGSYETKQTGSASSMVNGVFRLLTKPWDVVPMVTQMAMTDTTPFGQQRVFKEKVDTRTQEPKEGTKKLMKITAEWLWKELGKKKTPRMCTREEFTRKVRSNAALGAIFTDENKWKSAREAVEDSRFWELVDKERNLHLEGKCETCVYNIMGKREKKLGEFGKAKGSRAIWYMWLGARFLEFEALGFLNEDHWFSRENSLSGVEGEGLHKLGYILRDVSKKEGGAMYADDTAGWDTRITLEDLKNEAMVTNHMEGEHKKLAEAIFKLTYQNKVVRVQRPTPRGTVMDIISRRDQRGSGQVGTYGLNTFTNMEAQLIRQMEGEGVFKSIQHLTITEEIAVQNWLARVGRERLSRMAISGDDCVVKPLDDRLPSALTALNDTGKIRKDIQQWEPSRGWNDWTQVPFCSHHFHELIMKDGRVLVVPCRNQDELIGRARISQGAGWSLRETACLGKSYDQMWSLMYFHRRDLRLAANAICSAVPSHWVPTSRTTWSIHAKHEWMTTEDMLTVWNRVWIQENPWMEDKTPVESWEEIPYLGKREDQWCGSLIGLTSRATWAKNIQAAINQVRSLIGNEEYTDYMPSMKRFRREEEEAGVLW
# Sequence of Nonstructural protein 1 (Q194T2 whole entry, the tested form may be a part): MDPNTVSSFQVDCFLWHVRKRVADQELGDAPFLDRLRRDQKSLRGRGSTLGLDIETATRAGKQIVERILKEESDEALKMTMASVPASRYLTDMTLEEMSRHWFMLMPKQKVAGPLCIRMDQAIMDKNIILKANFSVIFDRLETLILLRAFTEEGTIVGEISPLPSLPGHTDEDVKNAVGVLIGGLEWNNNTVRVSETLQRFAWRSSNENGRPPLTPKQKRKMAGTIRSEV
# Sequence of Glyceraldehyde-3-phosphate dehydrogenase (P04406 whole entry): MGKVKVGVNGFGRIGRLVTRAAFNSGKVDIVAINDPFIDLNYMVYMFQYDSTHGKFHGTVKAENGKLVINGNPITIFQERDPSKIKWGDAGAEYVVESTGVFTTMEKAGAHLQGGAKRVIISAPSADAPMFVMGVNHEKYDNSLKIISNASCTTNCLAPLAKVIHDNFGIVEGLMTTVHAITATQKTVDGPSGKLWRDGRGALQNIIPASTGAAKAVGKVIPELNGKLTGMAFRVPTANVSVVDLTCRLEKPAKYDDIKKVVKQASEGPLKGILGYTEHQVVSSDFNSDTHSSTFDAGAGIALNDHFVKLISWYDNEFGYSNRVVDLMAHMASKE
compound,measurement,setting,value
Cc1ccn2cc(CCNC(=O)C3CC=CCC3C(=O)O)nc2c1 (centres undefined),EC50,[1],3.76 µM (active)
COc1ccc(S(=O)(=O)Nc2cccc(-c3ccc4nncn4n3)c2)cc1F,IC50,[2],> 80 µM (inactive)
Oc1ccc(Nc2nc3ccccc3nc2Nc2ccc(O)cc2)cc1,EC50,[3],117 µM (active)
same,EC50,[4],> 195 µM (not active)
same,EC50,[5],4.43 µM (active)
same,EC50,[6],1.25 µM (active)
same,IC50,[2],67.3 µM (inactive)
same,EC50,[7],> 30 µM (not active)
same,EC50,[8],> 120 µM (not active)
same,EC50,[9],1.19 µM (active)
same,EC50,[10],21.4 µM (active)
O=C(O)c1cc([N+](=O)[O-])c(Sc2nc3ccccc3[nH]2)c([N+](=O)[O-])c1,IC50,Genome polyprotein,> 100 µM (active)
CCOc1ccc2c(c1)OC(c1ccc(C)cc1)(C(F)(F)F)NC2=O (centres undefined),IC50,[2],> 80 µM (inactive)
same,EC50,[11],> 38 µM (not active)
same,EC50,[12],> 160 µM (inconclusive)
same,EC50,BJ [13],1.32 µM (inconclusive)
same,EC50,BJ [14],4.54 µM (inconclusive)
same,EC50,[15],11.7 µM (inconclusive)
same,EC50,BJ [16],29.9 µM (inconclusive)
CCCn1c(SCC(=O)Nc2ccccc2-c2ccccc2)nnc1-c1ccoc1C,IC50,Fatty acid synthase [17],8.34 µM (active)
same,IC50,Fatty acid synthase [18],7.42 µM (active)
COc1cccc(C(=O)NC2CCCN(C3Cc4ccccc4C3)C2)c1OC (centres undefined),EC50,[1],5.31 µM (active)
COc1ccccc1N1C(=O)NC(=O)/C(=C\c2cnn(-c3ccccc3)c2)C1=O,IC50,Genome polyprotein,> 100 µM (active)
O=C(/C=C/c1cccc([N+](=O)[O-])c1)NCCSCc1ccc(Cl)cc1Cl,IC50,Fatty acid synthase [17],10.4 µM (active)
same,IC50,Fatty acid synthase [18],9.88 µM (active)
COc1cccc(N2CCN(C3=C(Cl)C(=O)N(c4ccc(C)cc4)C3=O)CC2)c1,IC50,[19],> 50 µM (inconclusive)
O=C(CSc1n[nH]c(-c2ccccn2)n1)Nc1ccccc1,IC50,Nonstructural protein 1,5.02 µM (active)
same,EC50,[3],> 120 µM (not active)
same,EC50,[8],> 120 µM (not active)
same,EC50,[10],> 120 µM (not active)
Cc1ccc2cc(C#N)c(NCCNC(=O)C3CCC3)nc2c1C,AC50,[20],11 µM (active)
same,AC50,[21],8.62 µM (active)
same,AC50,[22],9.78 µM (active)
same,AC50,[23],9.91 µM (active)
COc1ccc(N2CCN(C(=O)C3CCC(Cn4c(=S)[nH]c5ccccc5c4=O)CC3)CC2)cc1 (centres undefined),IC50,Nonstructural protein 1,> 100 µM (active)
same,AC50,[21],10 µM (active)
Cc1ccc(Cn2c(C)nc3ccc([N+](=O)[O-])cc3c2=O)cc1,IC50,Fatty acid synthase [17],4.8 µM (active)
same,IC50,Fatty acid synthase [18],5.2 µM (active)
COC(=O)C1=NN(C(=O)c2ccc(C)cc2)C(O)(c2ccc(Cl)cc2)C1 (centres undefined),EC50,[24],37.7 µM (inconclusive)
same,EC50,[1],6.68 µM (active)
same,EC50,[25],> 300 µM (not active)
Cc1cc(C)c(NC(=O)COC(=O)c2cc([N+](=O)[O-])ccc2N2CCOCC2)c(C)c1,IC50,Fatty acid synthase [17],6.16 µM (active)
same,IC50,Fatty acid synthase [18],10.8 µM (active)
COc1ccc(CCNc2oc(-c3cccc4ccccc34)nc2P(=O)(OC)OC)cc1OC,AC50,[20],10.6 µM (active)
same,AC50,[21],1.1 µM (active)
same,AC50,[22],7.26 µM (active)
same,AC50,[23],5 µM (active)
OCCN1CCN(Cc2cc(Br)cc(Br)c2O)CC1,EC50,[1],0.0293 µM (active)
N#Cc1c(N)[nH]c(C(=O)c2ccccc2)c1-c1ccc(Cl)cc1,IC50,Fatty acid synthase [17],7.39 µM (active)
same,IC50,Fatty acid synthase [18],13.3 µM (active)
Cn1cc(/C=N/n2cnc3scc(-c4ccc(Cl)cc4)c3c2=O)c2ccccc21,EC50,[24],> 300 µM (not active)
same,IC50,[2],> 80 µM (inactive)
same,EC50,BJ [13],1.1 µM (active)
same,EC50,BJ [14],1.07 µM (active)
same,EC50,[25],> 300 µM (not active)
same,EC50,[15],0.85 µM (active)
same,EC50,BJ [16],1.77 µM (active)
CCOC(=O)[C@@H]1[C@H]2COc3ccc(Br)cc3[C@@H]2N2C(=O)N(c3ccc(F)cc3)C(=O)[C@@]12C,AC50,[20],3.77 µM (active)
same,AC50,[21],4.5 µM (active)
same,AC50,[22],5.78 µM (active)
same,AC50,[23],1.72 µM (active)
CCN(C[C@H]1N[C@@](CC)(C(=O)OC)[C@H]2C(=O)N(Cc3ccccc3)C(=O)[C@@H]12)C(=O)Nc1ccc(OC)cc1,AC50,[20],1.23 µM (active)
same,AC50,[21],0.993 µM (active)
same,AC50,[22],0.581 µM (active)
same,AC50,[23],0.421 µM (active)
CC(=O)c1c(O)cc2c3c1OC(C)(C)C1CCC(C)(CC31)O2 (centres undefined),AC50,[20],13.1 µM (active)
same,AC50,[21],9.92 µM (active)
same,AC50,[22],1.07 µM (active)
same,AC50,[23],5.16 µM (active)
